# From patent US8906852B2 (MethylGene Inc., priority 2010, dated 2014)
# Molecular target: T1, VEGFR/KDR (Homo sapiens, UniProt P35968)
# T1 construct: made in house; host or cells: Sf9 cells (Spodoptera frugiperda), baculovirus
# Experiment: VEGFR/KDR kinase inhibition, DELFIA assay
# Assay type: biochemical
# Details: ATP 0.6 uM (2x Km), enzyme 5 nM
# Method in brief: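 Enzyme (5 nM) pre-incubated 4 min on ice with inhibitor and Mg-ATP (0.6 uM, 2× Km), then reacted 10-30 min at 30° C on immobilized poly(Glu4,Tyr). EDTA-quenched phosphotyrosine detected with Europium-labeled antibody by time-resolved fluorescence; IC50 from concentration series.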
# T1 sequence (P35968 806-1356): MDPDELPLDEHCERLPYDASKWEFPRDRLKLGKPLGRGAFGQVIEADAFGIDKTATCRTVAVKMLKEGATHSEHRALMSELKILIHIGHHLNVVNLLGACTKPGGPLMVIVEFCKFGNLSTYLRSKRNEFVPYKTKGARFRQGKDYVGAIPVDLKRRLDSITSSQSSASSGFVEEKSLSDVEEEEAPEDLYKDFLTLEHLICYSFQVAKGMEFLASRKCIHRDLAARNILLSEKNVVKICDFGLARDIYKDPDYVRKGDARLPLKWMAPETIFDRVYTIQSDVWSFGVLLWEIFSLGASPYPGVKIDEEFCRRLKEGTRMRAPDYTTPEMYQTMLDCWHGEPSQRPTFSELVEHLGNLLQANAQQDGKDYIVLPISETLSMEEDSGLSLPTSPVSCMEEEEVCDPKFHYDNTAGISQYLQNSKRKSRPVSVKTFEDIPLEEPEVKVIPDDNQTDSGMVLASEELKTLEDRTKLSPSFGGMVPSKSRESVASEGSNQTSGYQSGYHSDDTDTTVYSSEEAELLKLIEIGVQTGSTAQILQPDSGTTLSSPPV
row,IC50,Compound
1,< 50 nM,NC1CN(Cc2ccc(-c3cc4nccc(Oc5ccc(NC(=O)NC6CC6)cc5F)c4s3)nc2)C1 [Compound 402]
2,50 to 100 nM,CCOC(=O)C1CCN(C(=O)c2cc3nccc(Oc4ccc(NC(=O)NC5CC5)cc4F)c3s2)CC1 [Compound 457]
3,< 50 nM,CC(=O)OCC(=O)NC1CCN(Cc2ccc(-c3cc4nccc(Oc5ccc(NC(=O)NC6CC6)cc5F)c4s3)nc2)CC1 [Compound 345]
4,< 50 nM,"O=C(O)CCN1CCN(C(=O)c2ccc(-c3cc4nccc(Oc5ccc(NC(=O)NC6CC6)cc5F)c4s3)nc2)CC1 [Compound 239, 3-(4-(6-(7-(4-(3-cyclopropylureido)-2-fluorophenoxy)thieno[3,2-b]pyridin-2-yl)nicotinoyl)piperazin-1-yl)propanoic acid tetraacetate]"
5,< 50 nM,"O=C(CO)N[C@H]1CCN(Cc2ccc(-c3cc4nccc(Oc5ccc(NC(=O)NC6CC6)cc5F)c4s3)nc2)C1 [Compound 497, (S)-N-(1-((6-(7-(4-(3-cyclopropylureido)-2-fluorophenoxy)thieno[3,2-b]pyridin-2-yl)-pyridin-3-yl)methyl)pyrrolidin-3-yl)-2-hydroxyacetamide]"
6,< 50 nM,O=C(O)CCNC(=O)N1CCN(Cc2ccc(-c3cc4nccc(Oc5ccc(NC(=O)NC6CC6)cc5F)c4s3)nc2)CC1 [Compound 559]
7,< 50 nM,"COCCN(CCc1ccc(-c2cc3nccc(Oc4ccc(NC(=O)NC5CC5)cc4F)c3s2)nc1)C(=O)CO [Compound 46, N-(2-(6-(7-(4-(3-cyclopropylureido)-2-fluorophenoxy)thieno[3,2-b]pyridin-2-yl)pyridin-3-yl)ethyl)-2-hydroxy-N-(2-methoxyethyl)-acetamide]"
8,< 50 nM,"CCOC(=O)CCN1CCN(Cc2ccc(-c3cc4nccc(Oc5ccc(NC(=O)NC6CC6)cc5F)c4s3)nc2)CC1 [Compound 68, ethyl 3-(4-((6-(7-(4-(3-cyclopropyl-ureido)-2-fluorophenoxy)-thieno[3,2-b]-pyridin-2-yl)pyridin-3-yl)methyl)piperazin-1-yl)propanoate]"
9,< 50 nM,O=C(Nc1ccc(Oc2ccnc3cc(-c4cn(CC(=O)N5CCN(C(=O)CO)CC5)nn4)sc23)c(F)c1)NC1CC1 [Compound 391]
10,< 50 nM,"O=C(Nc1ccc(Oc2ccnc3cc(-c4ccc(CN5C(=O)CCC5=O)cn4)sc23)c(F)c1)NC1CC1 [Compound 140, 1-cyclopropyl-3-(4-(2-(5-((2,5-dioxopyrrolidin-1-yl)methyl)pyridin-2-yl)thieno[3,2-b]pyridin-7-yloxy)-3-fluorophenyl)urea]"
11,< 50 nM,O=C(Nc1ccc(Oc2ccnc3cc(C(=O)N4CCC4)sc23)c(F)c1)NC1CC1 [Compound 446]
12,< 50 nM,"COCCOCC(=O)N(CCOC)Cc1ccc(-c2cc3nccc(Oc4ccc(NC(=O)NC5CC5)cc4F)c3s2)cc1 [Compound 115, N-(4-(7-(4-(3-cyclopropylureido)-2-fluorophenoxy)thieno[3,2-b]pyridin-2-yl)benzyl)-2-(2-methoxyethoxy)-N-(2-methoxyethyl)acetamide]"
13,< 50 nM,O=C(Nc1ccc(Oc2ccnc3cc(C(=O)N4CCCC4)sc23)c(F)c1)NC1CC1 [Compound 445]
14,< 50 nM,"CC(C)[C@H](N)C(=O)N1CCN(Cc2ccc(-c3cc4nccc(Oc5ccc(NC(=O)NC6CC6)cc5F)c4s3)nc2)CC1 [Compound 76, (S)-1-(4-(2-(5-((4-(2-amino-3-methylbutanoyl)piperazin-1-yl)methyl)pyridin-2-yl)thieno[3,2-b]pyridin-7-yloxy)-3-fluorophenyl)-3-cyclopropylurea]"
15,< 50 nM,CCNC(=O)NC1CN(Cc2ccc(-c3cc4nccc(Oc5ccc(NC(=O)NC6CC6)cc5F)c4s3)nc2)C1 [Compound 408]
16,< 50 nM,"O=C(Nc1ccc(Oc2ccnc3cc(-c4ccc(CN5CCC(O)CC5)cn4)sc23)c(F)c1)NC1CC1 [Compound 599, 1-Cyclopropyl-3-(3-fluoro-4-(2-(5-((4-hydroxypiperidin-1-yl)methyl)pyridin-2-yl)thieno[3,2-b]pyridin-7-yloxy)phenyl)urea]"
17,< 50 nM,O=C(Nc1ccc(Oc2ccnc3cc(-c4cn(CCC(=O)N5CCOCC5)nn4)sc23)c(F)c1)NC1CC1 [Compound 377]
18,< 50 nM,O=C(Nc1ccc(Oc2ccnc3cc(C(=O)N4CC(O)C4)sc23)c(F)c1)NC1CC1 [Compound 462]
19,< 50 nM,"O=C(Nc1ccc(Oc2ccnc3cc(C(=O)N4CC[C@H](O)C4)sc23)c(F)c1)NC1CC1 [Compound 461, (S)-1-cyclopropyl-3-(3-fluoro-4-(2-(3-hydroxypyrrolidine-1-carbonyl)thieno[3,2-b]pyridin-7-yloxy)phenyl)urea]"

row,IC50,Compound
1,< 50 nM,"CCCCOC(=O)C1CN(C(=O)c2ccc(-c3cc4nccc(Oc5ccc(NC(=O)NC6CC6)cc5F)c4s3)nc2)CCO1 (centres unmarked) [Compound 238, butyl 4-(6-(7-(4-(3-cyclopropylureido)-2-fluorophenoxy)thieno[3,2-b]pyridin-2-yl)nicotinoyl)morpholine-2-carboxylate]"
2,< 50 nM,"CC(C)NC(=O)Nc1ccc(Oc2ccnc3cc(-c4ncc(CN5CCOCC5)n4C)sc23)c(F)c1 [Compound 299, 1-(3-fluoro-4-(2-(1-methyl-5-(morpholinomethyl)-1H-imidazol-2-yl)thieno[3,2-b]pyridin-7-yloxy)phenyl)-3-isopropylurea]"
3,< 50 nM,O=C(Cn1cc(-c2cc3nccc(Oc4ccc(NC(=O)NC5CC5)cc4F)c3s2)nn1)NCc1cccnc1 [Compound 381]
4,50 to 100 nM,"O=C(Nc1ccc(Oc2ccnc3cc(C(=O)N4CCC(C(=O)O)CC4)sc23)c(F)c1)NC1CC1 [Compound 465, 1-(7-(4-(3-cyclopropylureido)-2-fluorophenoxy)thieno[3,2-b]pyridine-2-carbonyl)piperidine-4-carboxylic acid]"
5,< 50 nM,O=C(Nc1ccc(Oc2ccnc3cc(-c4cn(CC(=O)N5CCCC5)nn4)sc23)c(F)c1)NC1CC1 [Compound 373]
6,< 50 nM,"COCCN(CCOC)Cc1ccc(-c2cc3nccc(Oc4ccc(NC(=O)NC5CC5)cc4F)c3s2)nc1 [Compound 50, 1-(4-(2-(5-((bis(2-methoxyethyl)amino)methyl)pyridin-2-yl)thieno[3,2-b]-pyridin-7-yloxy)-3-fluorophenyl)-3-cyclopropylurea]"
7,< 50 nM,CN1CCN(C(=O)Cn2cc(-c3cc4nccc(Oc5ccc(NC(=O)NC6CC6)cc5F)c4s3)nn2)CC1 [Compound 365]
8,< 50 nM,"C[C@H]1CN(Cc2ccc(-c3cc4nccc(Oc5ccc(NC(=O)NC6CC6)cc5F)c4s3)nc2)CCN1CCO [Compound 582, (S)-1-cyclopropyl-3-(3-fluoro-4-(2-(5-((4-(2-hydroxyethyl)-3-methylpiperazin-1-yl)methyl)pyridin-2-yl)thieno[3,2-b]pyridin-7-yloxy)phenyl)urea]"
9,< 50 nM,"O=C(Nc1ccc(Oc2ccnc3cc(-c4cn(CC(=O)N5CCNCC5)nn4)sc23)c(F)c1)NC1CC1 [Compound 389, 1-Cyclopropyl-3-(3-fluoro-4-(2-(1-(2-oxo-2-(piperazin-1-yl)ethyl)-1H-1,2,3-triazol-4-yl)thieno[3,2-b]pyridin-7-yloxy)phenyl)urea]"
10,< 50 nM,"CC(=O)OC1CN(C(=O)c2cc3nccc(Oc4ccc(NC(=O)NC5CC5)cc4F)c3s2)C1 [Compound 469, 1-(7-(4-(3-cyclopropylureido)-2-fluorophenoxy)thieno[3,2-b]pyridine-2-carbonyl)azetidin-3-yl acetate]"
11,< 50 nM,"COCCN(Cc1ccc(-c2cc3nccc(Oc4ccc(NC(=O)NC5CC5)cc4F)c3s2)cc1)C(=O)NC1CCCC1 [Compound 194, 1-(4-(7-(4-cyclopropylaminocarbonylamino-2-fluorophenoxy)thieno-[3,2-b]pyridin-2-yl)benzyl)-3-cyclopentyl-1-(2-methoxyethyl)urea]"
12,< 50 nM,"CC(C)[C@H](N)C(=O)OCCN1CCN(Cc2ccc(-c3cc4nccc(Oc5ccc(NC(=O)NC6CC6)cc5F)c4s3)nc2)CC1 [Compound 79, (S)-2-(4-((6-(7-(4-(3-cyclopropylureido)-2-fluorophenoxy)thieno[3,2-b]pyridin-2-yl)pyridin-3-yl)methyl)piperazin-1-yl)ethyl 2-amino-3-methylbutanoate]"
13,< 50 nM,"O=C(Nc1ccc(Oc2ccnc3cc(-c4ccc(C(=O)N5CCCC(C(=O)O)C5)cn4)sc23)c(F)c1)NC1CC1 (centres unmarked) [Compound 240, 1-(6-(7-(4-(3-cyclopropylureido)-2-fluorophenoxy)thieno[3,2-b]-pyridin-2-yl)nicotinoyl)piperidine-3-carboxylic acid]"
14,< 50 nM,C=CC(=O)N(C)C1CCN(Cc2ccc(-c3cc4nccc(Oc5ccc(NC(=O)NC6CC6)cc5F)c4s3)nc2)CC1 [Compound 412]
15,< 50 nM,COCCN(C)C1CCN(Cc2ccc(-c3cc4nccc(Oc5ccc(NC(=O)NC6CC6)cc5F)c4s3)nc2)CC1 [Compound 416]
16,< 50 nM,"Cn1c(C(=O)N2CCCC2)cnc1-c1cc2nccc(Oc3ccc(NC(=O)NC4CC4)cc3F)c2s1 [Compound 222, 1-cyclopropyl-3-(3-fluoro-4-(2-(1-methyl-5-(pyrrolidine-1-carbonyl)-1H-imidazol-2-yl)thieno[3,2-b]pyridin-7-yloxy)phenyl)urea]"
17,< 50 nM,"COCCN(Cc1ccc(-c2cc3nccc(Oc4ccc(NC(=O)NC5CC5)cc4F)c3s2)nc1)C(=O)COP(=O)(O)O [Compound 34, 2-(((6-(7-(4-(3-cyclopropylureido)-2-fluorophenoxy)thieno[3,2-b]pyridin-2-yl)pyridin-3-yl)methyl)(2-methoxyethyl)amino)-2-oxoethyl dihydrogen phosphate]"
18,< 50 nM,COCCNCCn1cnc(-c2cc3nccc(Oc4ccc(NC(=O)NC5CC5)cc4F)c3s2)c1 [compound 253]
19,< 50 nM,"O=C(Nc1ccc(Oc2ccnc3cc(-c4ccc(CN5CCCC(C(=O)NCCO)C5)cn4)sc23)c(F)c1)NC1CC1 (centres unmarked) [Compound 492, 1-((6-(7-(4-(3-cyclopropylureido)-2-fluorophenoxy)thieno[3,2-b]pyridin-2-yl)pyridin-3-yl)methyl)-N-(2-hydroxyethyl)piperidine-3-carboxamide]"
